Experimental data as given in US20080227732A1, “Treatment and Control of Severe Infections Including Cystic Fibrosis” (VENUS REMEDIES LIMITED, priority 2005, published 2008).

Experiments:
[1] = cited from earlier work
[2] = tested on: C. albicanus; test: Bacterial susceptibility test, disc diffusion on Müeller-Hinton Agar; format: cell-based; conditions: Concentration 2.18 g
Experimental: (§1) This test was performed by disc diffusion test for ceftazidime and tobramycin on Müeller-Hinton Agar medium purchased from Hi Media. The medium was prepared and used as per manufacturer's instructions. Ceftazidime alone, Tobramycin alone and the combination of Ceftazidime and Tobramycin, on different micro-organisms was taken. […] For each concentration the three zones were observed i.e for combination, Ceftazidime alone and Tobramycin alone and tested for efficacy against various types of micro-organisms.

[3] = tested on: P. aurignosa; test: as above; format: cell-based; conditions: for zone of inhibition: Concentration 560 mg; for Zone size: Concentration 1.12 g
Experimental: as §1

[4] = tested on: MRSA; test: as above; format: cell-based; conditions: for zone of inhibition: Staphylococcus aureus, MRSA, Concentration 560 mg
Experimental: as §1

[5] = tested on: E. coli; test: as above; format: cell-based; conditions: for Zone size: Concentration 1.12 g; for zone of inhibition: Escherichia coli, Concentration 560 mg
Experimental: as §1

[6] = tested on: Klebsiella; test: as above; format: cell-based, Klebsiella pneumoniae; conditions: Concentration 2.18 g
Experimental: as §1

[7] = febrile children with neutropenia, 5 to 10 days of therapy; cited from earlier work
[8] = tested on: Stapylococcus; test: Bacterial susceptibility test, disc diffusion on Müeller-Hinton Agar; format: cell-based, Staphylococcus (MSSA); conditions: Concentration 2.18 g
Experimental: as §1

[9] = High: C 2.0, T 0.18, I 2.18 mg/ml
[10] = Highest: C 20.0, T 1.8, I 21.8 mg/ml
[11] = Low: C 0.2, T 0.018, I 0.218 mg/ml
[12] = Lowest: C 0.02, T 0.0018, I 0.0218 mg/ml
[13] = High: C 0.5, T 0.06, I 0.56 mg/ml
[14] = Highest: C 5.0, T 0.6, I 5.6 mg/ml
[15] = Low: C 0.05, T 0.006, I 0.056 mg/ml
[16] = Lowest: C 0.005, T 0.0006, I 0.0056 mg/ml
[17] = High: C 1.0, T 0.12, I 1.12 mg/ml
[18] = Highest: C 10.0, T 1.2, I 11.2 mg/ml
[19] = Low: C 0.1, T 0.01, I 0.112 mg/ml
[20] = Lowest: C 0.01, T 0.001, I 0.011 mg/ml
[21] = Concentration 1.12 g, High: C 1.0, T 0.12, I 1.12 mg/ml
[22] = Concentration 1.12 g, Highest: C 10.0, T 1.2, I 11.2 mg/ml
[23] = Concentration 1.12 g, Low: C 0.1, T 0.01, I 0.112 mg/ml
[24] = Concentration 1.12 g, Lowest: C 0.01, T 0.001, I 0.011 mg/ml
[25] = Concentration 2.18 g, High: C 2.0, T 0.18, I 2.18 mg/ml
[26] = Concentration 2.18 g, Highest: C 20.0, T 1.8, I 21.8 mg/ml

Row | SMILES | Zone size [2, 9] [mm] | Zone size [2, 10] [mm] | Zone size [2, 11] [mm] | Zone size [2, 12] [mm] | zone of inhibition [3, 13] [mm] | zone of inhibition [3, 14] [mm] | zone of inhibition [3, 15] [mm] | zone of inhibition [3, 16] [mm] | Zone size [3, 17] [mm] | Zone size [3, 18] [mm] | Zone size [3, 19] [mm] | Zone size [3, 20] [mm] | Zone size [4, 21] [mm] | Zone size [4, 22] [mm] | Zone size [4, 23] [mm] | Zone size [4, 24] [mm] | Zone size [4, 25] [mm] | Zone size [4, 26] [mm] | zone of inhibition [4, 13] [mm] | zone of inhibition [4, 14] [mm] | other results
1 | CC(C)(O/N=C(\C(=O)N[C@@H]1C(=O)N2C(C(=O)[O-])=C(C[n+]3ccccc3)CS[C@H]12)c1csc(N)n1)C(=O)O [C, Ceftazidime] | 31.25 | 37.55 | 18.37 | 12.90 | 36 | 41.8 | 24.5 | 14.4 | 44.10 | 48.34 | 32.48 | 29.34 | 12.53 | 22.39 | 0 | 0 | 27.32 | 44.93 | 12.9 | 21.2 | overall response rate in septicaemia ([1]; cancer patients): 75%; overall response rate ([1]; episodes of infection in cancer patients): 60%; zone of inhibition [4, 16]: 0 mm; Zone size [5, 17]: 42.10 mm; Zone size [5, 18]: 47.34 mm; Zone size [5, 19]: 35.49 mm; Zone size [5, 20]: 33.34 mm; zone of inhibition [5, 13]: 42.1 mm; zone of inhibition [5, 14]: 47.3 mm; zone of inhibition [5, 15]: 35.5 mm; zone of inhibition [5, 16]: 33.3 mm; Zone size [6, 9]: 47.47 mm; Zone size [6, 10]: 51.22 mm; Zone size [6, 11]: 46.30 mm; patients clinically cured at the end of therapy [7]: 67%; Zone size [8, 9]: 35.76 mm; Zone size [8, 10]: 50.93 mm; Zone size [8, 11]: 22.45 mm
2 | NC[C@H]1O[C@H](O[C@H]2[C@H](O)[C@@H](O[C@H]3O[C@H](CO)[C@@H](O)[C@H](N)[C@H]3O)[C@H](N)C[C@@H]2N)[C@H](N)C[C@@H]1O [T, Tobramycin] | 26.45 | 35.47 | 15.65 | 0 | 21.2 | 32.1 | 16.7 | 10.9 | 23.02 | 30.31 | 19.16 | 11.35 | 22.45 | 33.22 | 10.24 | 9.89 | 14.61 | 17.13 | 23.9 | 32.4 | zone of inhibition [4, 15]: 11.7 mm; zone of inhibition [4, 16]: 9.46 mm; Zone size [5, 17]: 25.02 mm; Zone size [5, 18]: 30.30 mm; Zone size [5, 19]: 22.16 mm; Zone size [5, 20]: 14.35 mm; zone of inhibition [5, 13]: 25 mm; zone of inhibition [5, 14]: 30.3 mm; zone of inhibition [5, 15]: 22.2 mm; zone of inhibition [5, 16]: 14.3 mm; Zone size [6, 9]: 32.07 mm; Zone size [6, 10]: 38.71 mm; Zone size [6, 11]: 31.50 mm; Zone size [8, 9]: 27.49 mm; Zone size [8, 10]: 36.96 mm; Zone size [8, 11]: 16.68 mm
